Experimental data from the supplement of paper PMC10307832.

compound: Cc1ccc(Nc2nccc(N(C)c3ccc4c(C)n(C)nc4c3)n2)cc1S(N)(=O)=O [Pazopanib] + CC(C)C[C@H](NC(=O)[C@H](Cc1ccccc1)NC(=O)c1cnccn1)B(O)O [Bortezomib] (partner 0.002 µM); assay: relative viability (nuclei count vs DMSO), 5 days (fraction); higher = more cells survive; details: first compound 0.01 µM
Method in brief: (§1)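 Lung cancer cell lines were pin-tool dosed in 1536-well plates on the day after seeding, with either a lone drug or a fixed anchor-drug dose plus five library-drug doses (not always all listed) in √10 steps. Nuclei were counted on 4× images after 5 days. Relative viability is the ratio of treated-well to vehicle-well nuclei counts, with each value a median of duplicate plates.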

Cell Line	relative viability
NCI-H650	0.696
CAL-12T	1.05
NCI-H1651	0.753
EPLC-272H	0.765
NCI-H2228	0.954
NCI-H322M	1.09
NCI-H1437	0.617
NCI-H1755	0.883
NCI-H2023	0.719
HCC-15	1.05
PC-3 [JPC-3]	0.957
EKVX	1.09
LC-2-ad	0.977
NCI-H1975	0.356
SK-LU-1	1.15

same assay, conditions: first compound 0.03162 µM

Cell Line	relative viability
LU99A	1.18
BEN	0.725
HARA	1.08
HCC-78	0.453
NCI-H441	0.384
LCLC-97TM1	0.693
NCI-H2009	1.11
A-427	1.02
NCI-H460	1.23
NCI-H1734	0.897
NCI-H520	0.612
NCI-H2405	0.981
SW 1573	1.14
201T	1.14
NCI-H1915	0.963
HCC-827	1.06
LXF-289	1.02

Cell Line	relative viability
NCI-H23	1.1
NCI-H650	0.861
CAL-12T	1.01
NCI-H1651	0.954
EPLC-272H	1.07
NCI-H2228	1.07
NCI-H1355	1.17
NCI-H322M	1.34
NCI-H1437	0.537
NCI-H1755	0.973
NCI-H2023	0.945
HCC-15	1.18
PC-3 [JPC-3]	0.948
EKVX	1.02
LC-2-ad	1.08
NCI-H1975	0.346
SK-LU-1	1.08

same assay, conditions: first compound 0.1 µM

Cell Line	relative viability
LU99A	1.18
BEN	0.76
HARA	1.25
HCC-78	0.498
NCI-H441	0.665
LCLC-97TM1	0.482
NCI-H2009	0.876
A-427	0.929
NCI-H460	1.2
NCI-H1734	1.01
NCI-H520	0.73
NCI-H2405	0.997
SW 1573	1.08
201T	1.13
NCI-H1915	0.983
HCC-827	1.06
LXF-289	0.993

Cell Line	relative viability
NCI-H23	1.11
NCI-H650	0.804
CAL-12T	0.843
NCI-H1651	0.965
EPLC-272H	0.843
NCI-H2228	0.866
NCI-H1355	1.21
NCI-H322M	1.35
NCI-H1437	0.428
NCI-H1755	0.966
NCI-H2023	0.877
HCC-15	1.04
PC-3 [JPC-3]	0.814
EKVX	1
LC-2-ad	1.02
NCI-H1975	0.461
SK-LU-1	1.23

same assay, conditions: first compound 0.3162 µM

Cell Line	relative viability
LU99A	1.25
BEN	0.917
HARA	1.22
HCC-78	0.414
NCI-H441	0.324
LCLC-97TM1	0.737
NCI-H2009	0.955
A-427	0.922
NCI-H460	1.14
NCI-H1734	0.996
NCI-H520	0.744
NCI-H2405	0.982
SW 1573	1.09
201T	1.1
NCI-H1915	0.972
HCC-827	1.05
LXF-289	0.91

Cell Line	relative viability
NCI-H23	1.07
NCI-H650	0.935
CAL-12T	1.04
NCI-H1651	0.97
EPLC-272H	1.12
NCI-H2228	0.926
NCI-H1355	1.21
NCI-H322M	1.32
NCI-H1437	0.518
NCI-H1755	0.928
NCI-H2023	0.964
HCC-15	0.976
PC-3 [JPC-3]	0.868
EKVX	0.996
LC-2-ad	0.956
NCI-H1975	0.464
SK-LU-1	1.37

same assay, conditions: first compound 1 µM

Cell Line	relative viability
LU99A	1.25
BEN	0.874
HARA	1.08
HCC-78	0.619
NCI-H441	0.434
LCLC-97TM1	0.592
NCI-H2009	0.906
A-427	1.02
NCI-H460	1.13
NCI-H1734	0.935
NCI-H520	0.737
NCI-H2405	0.982
SW 1573	1.17
201T	1.11
NCI-H1915	0.884
HCC-827	1.03
LXF-289	0.956

Cell Line	relative viability
NCI-H23	1.41
NCI-H650	0.812
CAL-12T	1.35
NCI-H1651	0.916
EPLC-272H	1.1
NCI-H2228	0.834
NCI-H1355	1.35
NCI-H322M	1.21
NCI-H1437	0.583
NCI-H1755	1.04
NCI-H2023	1.42
HCC-15	1.05
PC-3 [JPC-3]	0.774
EKVX	1.02
LC-2-ad	1.12
NCI-H1975	0.448
SK-LU-1	1.27

compound: Cc1ccc(Nc2nccc(N(C)c3ccc4c(C)n(C)nc4c3)n2)cc1S(N)(=O)=O [Pazopanib] + Cc1nc(Nc2ncc(C(=O)Nc3c(C)cccc3Cl)s2)cc(N2CCN(CCO)CC2)n1 [Dasatinib] (partner 0.075 µM); assay: as above; details: first compound 0.01 µM
Method in brief: as §1

Cell Line	relative viability
LU99A	0.425
HARA	0.23
HCC-78	0.328
NCI-H441	0.451
LCLC-97TM1	0.771
NCI-H2009	0.279
A-427	0.652
NCI-H460	0.274
NCI-H1734	0.387
NCI-H520	0.142
NCI-H2405	0.222
SW 1573	0.588
201T	0.526
NCI-H1915	0.253
HCC-827	0.286
LXF-289	0.224

Cell Line	relative viability
NCI-H23	0.722
NCI-H650	0.398
CAL-12T	0.308
NCI-H1651	0.371
NCI-H2228	0.589
NCI-H1355	0.443
NCI-H322M	0.265
NCI-H1437	0.399
NCI-H1755	0.333
NCI-H2023	0.528
HCC-15	0.543
PC-3 [JPC-3]	0.991
EKVX	0.63
LC-2-ad	0.445
NCI-H1975	0.371
SK-LU-1	0.142

same assay, conditions: first compound 0.03162 µM

Cell Line	relative viability
LU99A	0.545
BEN	0.343
HARA	0.341
HCC-78	0.383
NCI-H441	0.612
LCLC-97TM1	0.854
NCI-H2009	0.324
A-427	0.72
NCI-H460	0.472
NCI-H1734	0.471
NCI-H520	0.183
NCI-H2405	0.227
SW 1573	0.717
201T	0.424
NCI-H1915	0.319
HCC-827	0.27
LXF-289	0.236

Cell Line	relative viability
NCI-H23	0.852
NCI-H650	0.511
CAL-12T	0.412
NCI-H1651	0.46
EPLC-272H	0.321
NCI-H2228	0.561
NCI-H1355	0.549
NCI-H322M	0.258
NCI-H1437	0.465
NCI-H1755	0.398
NCI-H2023	0.566
HCC-15	0.631
PC-3 [JPC-3]	0.939
EKVX	0.53
LC-2-ad	0.555
NCI-H1975	0.359
SK-LU-1	0.179

same assay, conditions: first compound 0.1 µM

Cell Line	relative viability
LU99A	0.622
BEN	0.267
HARA	0.241
HCC-78	0.362
NCI-H441	0.643
LCLC-97TM1	0.888
NCI-H2009	0.298
A-427	0.614
NCI-H460	0.566
NCI-H1734	0.458
NCI-H520	0.213
NCI-H2405	0.147
SW 1573	0.621
201T	0.568
NCI-H1915	0.321
HCC-827	0.284
LXF-289	0.19

Cell Line	relative viability
NCI-H23	0.94
NCI-H650	0.449
CAL-12T	0.312
NCI-H1651	0.397
EPLC-272H	0.369
NCI-H2228	0.383
NCI-H1355	0.773
NCI-H322M	0.257
NCI-H1437	0.353
NCI-H1755	0.433
NCI-H2023	0.473
HCC-15	0.612
PC-3 [JPC-3]	1.11
EKVX	0.54
LC-2-ad	0.575
NCI-H1975	0.336
SK-LU-1	0.192

same assay, conditions: first compound 0.3162 µM

Cell Line	relative viability
LU99A	0.54
BEN	0.318
HARA	0.248
HCC-78	0.429
NCI-H441	0.565
LCLC-97TM1	0.847
NCI-H2009	0.335
A-427	0.694
NCI-H460	0.603
NCI-H1734	0.459
NCI-H520	0.145
NCI-H2405	0.256
SW 1573	0.451
201T	0.545
NCI-H1915	0.318
HCC-827	0.399
LXF-289	0.156

Cell Line	relative viability
NCI-H23	0.869
NCI-H650	0.427
CAL-12T	0.458
NCI-H1651	0.436
EPLC-272H	0.376
NCI-H2228	0.481
NCI-H1355	0.639
NCI-H322M	0.275
NCI-H1437	0.396
NCI-H1755	0.384
NCI-H2023	0.535
HCC-15	0.67
PC-3 [JPC-3]	0.939
EKVX	0.592
LC-2-ad	0.792
NCI-H1975	0.415
SK-LU-1	0.189

same assay, conditions: first compound 1 µM

Cell Line	relative viability
LU99A	0.503
BEN	0.38
HARA	0.337
HCC-78	0.339
NCI-H441	0.658
LCLC-97TM1	0.785
NCI-H2009	0.226
A-427	0.701
NCI-H460	0.758
NCI-H1734	0.478
NCI-H520	0.25
NCI-H2405	0.249
SW 1573	0.561
201T	0.666
NCI-H1915	0.402
HCC-827	0.324
LXF-289	0.242

Cell Line	relative viability
NCI-H23	0.894
NCI-H650	0.482
CAL-12T	0.462
NCI-H1651	0.5
EPLC-272H	0.251
NCI-H2228	0.457
NCI-H1355	0.686
NCI-H322M	0.277
NCI-H1437	0.723
NCI-H1755	0.411
NCI-H2023	0.577
HCC-15	0.692
PC-3 [JPC-3]	0.983
EKVX	0.601
LC-2-ad	0.535
NCI-H1975	0.359
SK-LU-1	0.174
